In patent publication US7915287B2, “Substituted heterocycles and methods of use” (Amgen Inc., priority 2006, dated 2011):

Target: T1, c-Met (Homo sapiens, UniProt P08581)
T1 construct: A PCR product covering residues 1058-1365 of c-Met (c-Met kinase domain) is generated; made in house; host or cells: baculovirus-infected (insect) cells
Test: c-Met receptor assay (HTRF kinase assay with GST-cMet (P), gastrin and ATP)
Type: biochemical
Conditions: illustrative activity values
Protocol: Phosphorylation of the purified GST-cMET is performed by incubating the protein for 3 h at RT with the following:
After incubation, the solution is concentrated in a Vivaspin 20 ml Concentrator to a volume less than 2.00 ml. The solution is applied to the same Superdex 75 16/60 column used above after re-equilibration. The GST-cMET is eluted as described above. The elution fractions corresponding to the first eluted peak on the chromatogram are run on a 12% Tris Glycine gel, as above, to identify the fractions with GST-cMET. Fractions are pooled and the OD280 is read with the column buffer used as the blank.
A Kinase reaction Buffer is prepared as follows:
When the assay is carried out, freshly add:
The HTRF buffer contains:
1. Dilute GST-cMet (P) enzyme in kinase buffer as follows:
2. Assay plate preparation:
Then incubate the plate at RT for 30 min.
3. Prepare Gastrin and ATP working solution in kinase reaction buffer as follows:
Use Biomek FX to add 20 μl ATP and Gastrin working solution to the assay plate to start reaction, incubate the plate at RT for 1 h.
KM ATP, KM gastrin for various enzymes were determined by HTRF/^33P labeling and HTRF methods.
Cloning, Expression and Purification of c-Met Kinase Domain
Alternative Purification of Human GST-cMET from Baculovirus Cells
The resin is washed with 10 column volumes (100 mL) of Lysis Buffer. […] The elution is collected as 15 mL fractions. Aliquots of the elution fractions are run on SDS PAGE (12% Tris Glycine gel, Invitrogen, #EC6005BOX). The gel is stained with 0.25% Coomassie Blue stain. Fractions with GST-cMET are concentrated with a Vivaspin 20 mL Concentrator (#VS2002; 10.00 MW cutoff) to a final volume less than 2.0 ml. […] The GST-cMET is eluted with an isocratic run of the above buffer, with the eluent collected in 1.0 mL fractions. Fractions with significant OD280 readings are run on another 12% Tris Glycine gel. The peak tubes with GST-cMET are pooled and the OD280 is read with the column buffer listed above as the blank buffer. […]

T1 sequence (P08581 1058-1365): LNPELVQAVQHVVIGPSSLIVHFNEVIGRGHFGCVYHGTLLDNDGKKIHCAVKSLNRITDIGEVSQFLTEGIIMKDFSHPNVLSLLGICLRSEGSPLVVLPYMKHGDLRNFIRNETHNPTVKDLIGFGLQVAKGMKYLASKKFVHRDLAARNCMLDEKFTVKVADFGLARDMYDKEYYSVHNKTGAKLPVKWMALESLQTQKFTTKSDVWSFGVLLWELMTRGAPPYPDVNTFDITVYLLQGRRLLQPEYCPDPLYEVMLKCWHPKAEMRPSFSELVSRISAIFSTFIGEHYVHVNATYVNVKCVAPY

Ki [nM] | Compound
1.7 | Cc1cnc(Nc2ccc(Oc3ccnc(NC(=O)N4CCOCC4)c3)c(F)c2)c(C(=O)Nc2ccccc2)c1 [Example 1, N-(4-(2-fluoro-4-(5-methyl-3-(phenylcarbamoyl)pyridin-2-ylamino)phenoxy)pyridin-2-yl)morpholine-4-carboxamide]
4.7 | COc1ccc2c(Oc3ccc(Nc4ncc(-c5ccsc5)cc4C(=O)Nc4ccccc4)cc3F)ccnc2c1 [Example 4, 2-(3-fluoro-4-(7-methoxyquinolin-4-yloxy)phenylamino)-N-phenyl-5-(thiophen-3-yl)nicotinamide]
0.6 | O=C(Nc1ccccc1)c1cccnc1Nc1ccc(Oc2ccnc(NC(=O)N3CCCC3)c2)c(F)c1 [Example 5, 2-(3-fluoro-4-(2-(pyrrolidine-1-carboxamido)pyridin-4-yloxy)phenylamino)-N-phenylnicotinamide]
40.5 | COc1ccccc1NC(=O)c1cccnc1Nc1ccc(Oc2ccnc3cc(OCc4ccccc4)c(OC)cc23)c(F)c1 [Example 10, 2-(4-(7-(benzyloxy)-6-methoxyquinolin-4-yloxy)-3-fluorophenylamino)-N-(2-methoxyphenyl)nicotinamide]
4.8 | COc1cc2c(Oc3ccc(Nc4ncccc4C(=O)NCc4ccccc4)cc3)ccnc2cc1OCCCN1CCOCC1 [Example 15, N-benzyl-2-(4-(6-methoxy-7-(3-morpholinopropoxy)quinolin-4-yloxy)phenylamino)nicotinamide]
136 | COc1cc2nccc(Oc3ccc(Nc4ncccc4C(=O)NC(C)c4nccs4)cc3)c2cc1OC (stereo not drawn) [Example 24, 2-(4-(6,7-dimethoxyquinoline-4-yloxy)phenylamino)-N-(1-(thiazol-2-yl)ethyl)nicotinamide]
498 | CNC(=O)c1cccnc1Nc1ccc(Oc2ccnc3cc(OC)c(OC)cc23)cc1 [Example 26, 2-(4-(6,7-dimethoxyquinoline-4-yloxy)phenylamino)-N-methylnicotinamide]
180 | COc1cc2nccc(Oc3ccc(Nc4ncccc4C(=O)NCc4nccs4)cc3)c2cc1OC [Example 27, 2-(4-(6,7-dimethoxyquinoline-4-yloxy)phenylamino)-N-(thiazol-2-ylmethyl)nicotinamide]
576 | COc1cc2nccc(Oc3ccc(Nc4ncccc4C(=O)NCc4ncc[nH]4)cc3)c2cc1OC [Example 28, N-((1H-imidazol-2-yl)methyl)-2-(4-(6,7-dimethoxyquinoline-4-yloxy)phenylamino)nicotinamide]
196 | COc1cc2nccc(Oc3ccc(Nc4ncccc4C(=O)Nc4ncco4)cc3)c2cc1OC [Example 29, 2-(4-(6,7-dimethoxyquinoline-4-yloxy)phenylamino)-N-(oxazol-2-yl)nicotinamide]
0.2 | CSc1ncc(C(=O)Nc2ccccc2)c(Nc2ccc(Oc3ccnc(NC(=O)N4CCCC4)c3)c(F)c2)n1 [Example 30, 4-(3-fluoro-4-(2-(pyrrolidine-1-carboxamido)pyridin-4-yloxy)phenylamino)-2-(methylthio)-N-phenylpyrimidin-5-carboxamide]
29.3 | COc1ccc2c(Oc3ccc(Nc4nccnc4C(=O)Nc4ccccc4)cc3F)ccnc2c1 [Example 36, 3-(3-fluoro-4-(7-methoxyquinolin-4-yloxy)phenylamino)-N-phenylpyrazine-2-carboxamide]
